Legend:
MOLM-13 cells = assay: MOLM-13 Cellular Assay; assay type: cell-based; details: Homo sapiens, 72 hours, cell viability by CellTiter-Glo
Experimental: MOLM-13 cells were obtained from DSMZ and were maintained in RPMI 1640+Glutamax+25 mM HEPES (Invitrogen, catalog number 72400) supplemented with 10% heat inactivated fetal bovine serum (FBS; Invitrogen, catalog number 16140). The day prior to assay set-up, cells were pelleted, resuspended in fresh media, counted, and cells were plated at 0.4×10^6 cell/mL in a T150 flask. On the day of the assay, cells were pelleted, resuspend in fresh media, counted, and seeded at 5,000 cells/well in white opaque 96-well tissue culture treated microplates (Perkin Elmer, catalog number 6005680). Cells were exposed to different concentrations of test compounds at 37° C., 5% CO2 for 72 hours immediately after seeding. Cell viability was acquired on a Perkin Elmer Envision 2104 multilabel reader using the CellTiter-Glo assay (Promega) according to the manufacturer's instructions.

human DHODH = human DHODH (Homo sapiens (Human), UniProt Q02127); assay: DHODH Enzymatic Assay; assay type: biochemical; details: purified human DHODH, DCIP absorbance, end-point mode
Experimental: To detect DHODH enzyme activities, dichloroindophenol (DCIP) is added as the final electron acceptor in the assay. DCIP can accept electrons from the reduced coenzyme Q generated in the assay, or from dihydroorotate (DHO) via FMN by binding presumably to the ubiquinone pocket. […] The assay buffer contained […], pH 7.5, 150 mM NaCl, 0.5 mM EDTA, and 0.1% Triton X-100 in MilliQ water. Substrate consisting of 20 mM DHO, 5 mM CoQ6, and 1 mM DCIP in assay buffer, initiates the reaction. […] Absorbance measurements were obtained using the BMG Phera Star plate-reading spectrophotomer. Purified human DHODH was purchased from Proteros (cat. No. PR-0044). Chemicals were purchased from Sigma-Aldrich, Teknova, and Avanti Polar Lipids. Liquid handling was performed using Labcyte Echo and Formulatrix Tempest.

human DHODH, sequence (Q02127 whole entry): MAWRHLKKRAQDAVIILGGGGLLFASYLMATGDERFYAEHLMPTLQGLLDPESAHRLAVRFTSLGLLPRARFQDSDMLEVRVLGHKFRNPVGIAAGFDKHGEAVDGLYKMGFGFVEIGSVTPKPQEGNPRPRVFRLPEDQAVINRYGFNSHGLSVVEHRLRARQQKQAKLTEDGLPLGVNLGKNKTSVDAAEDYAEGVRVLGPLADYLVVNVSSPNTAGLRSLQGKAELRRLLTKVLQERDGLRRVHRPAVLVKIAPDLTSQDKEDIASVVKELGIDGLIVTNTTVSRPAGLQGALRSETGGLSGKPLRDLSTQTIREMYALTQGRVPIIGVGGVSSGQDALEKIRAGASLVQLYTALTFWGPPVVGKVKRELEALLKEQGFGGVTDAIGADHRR

IC50 (MOLM-13 cells) | IC50 (human DHODH) | Compound
3 nM | 5.5 nM | CCn1c(CO)nn(-c2cc3c(cc2F)O[C@H](c2c(F)cccc2Cl)CN3C(C)C)c1=O (single isomer, unassigned) [Example 8, (R*)-1-(2-(2-Chloro-6-fluorophenyl)-7-fluoro-4-isopropyl-3,4-dihydro-2H-benzo[b][1,4]oxazin-6-yl)-4-ethyl-3-(hydroxymethyl)-1H-1,2,4-triazol-5(4H)-one]
4 nM | 7.9 nM | CCn1c(CO)nn(-c2cc3c(cc2F)[C@@H](O)[C@@H](c2ccccc2C)CN3C(C)C)c1=O (stereo in doubt) [Example 15, 4-Ethyl-2-((3S*,4S*)-6-fluoro-4-hydroxy-1-isopropyl-3-(o-tolyl)-1,2,3,4-tetrahydroquinolin-7-yl)-5-(hydroxymethyl)-2,4-dihydro-3H-1,2,4-triazol-3-one]
20 nM | 51.7 nM | CCn1c(CO)nn(-c2cc3c(cc2F)NC(c2ccccc2C)CC3C(C)C)c1=O (racemic) [Example 13, Racemic 4-Ethyl-2-(7-fluoro-4-isopropyl-2-(o-tolyl)-1,2,3,4-tetrahydroquinolin-6-yl)-5-(hydroxymethyl)-2,4-dihydro-3H-1,2,4-triazol-3-one]
4 nM | 7.06 nM | CCn1c(CO)nn(-c2cc3c(cc2F)C(=O)C(C)(c2ccccc2C)CN3C(C)C)c1=O (racemic) [Example 19, Racemic 7-(4-Ethyl-3-(hydroxymethyl)-5-oxo-4,5-dihydro-1H-1,2,4-triazol-1-yl)-6-fluoro-1-isopropyl-3-methyl-3-(o-tolyl)-23-dihydroquinolin-4(1H)-one]
400 nM | 528 nM | CCn1c(CO)nn(-c2cc3c(cc2F)c(=O)c(-c2cccc(F)c2)cn3C(C)C)c1=O [Example 1, 7-(4-Ethyl-3-(hydroxymethyl)-5-oxo-4,5-dihydro-1H-1,2,4-triazol-1-yl)-6-fluoro-3-(3-fluorophenyl)-1-isopropylquinolin-4(1H)-one]
4 nM | 5.62 nM | CCn1c(CO)nn(-c2cc3c(cc2F)C(O)C(c2ccccc2C)CN3C(C)C)c1=O (racemic) [Example 14, Racemic 4-Ethyl-2-(6-fluoro-4-hydroxy-1-isopropyl-3-(o-tolyl)-1,2,3,4-tetrahydroquinolin-7-yl)-5-(hydroxymethyl)-2,4-dihydro-3H-1,2,4-triazol-3-one]
0.5 nM | 0.607 nM | CCn1c(CO)nn(-c2cc3c(cc2F)C(C)(O)C(c2ccccc2C)CN3C(C)C)c1=O (racemic) [Example 20, Racemic 4-Ethyl-2-(6-fluoro-4-hydroxy-1-isopropyl-4-methyl-3-(o-tolyl)-1,2,3,4-tetrahydroquinolin-7-yl)-5-(hydroxymethyl)-2,4-dihydro-3H-1,2,4-triazol-3-one]
2 nM | 2.24 nM | CCn1c(CO)nn(-c2cc3c(cc2F)[C@H](O)[C@H](c2ccccc2C)CN3C(C)C)c1=O (stereo in doubt) [Example 16, 4-Ethyl-2-((3R*,4R*)-6-fluoro-4-hydroxy-1-isopropyl-3-(o-tolyl)-1,2,3,4-tetrahydroquinolin-7-yl)-5-(hydroxymethyl)-2,4-dihydro-3H-1,2,4-triazol-3-one]
50 nM | 42.3 nM | CCn1c(CO)nn(-c2cc3c(cc2F)OC(c2c(F)cccc2Cl)C(=O)N3C(C)C)c1=O (stereo not drawn) [Example 5, 2-(2-Chloro-6-fluorophenyl)-6-(4-ethyl-3-(hydroxymethyl)-5-oxo-4,5-dihydro-1H-1,2,4-triazol-1-yl)-7-fluoro-4-isopropyl-2H-benzo[b][1,4]oxazin-3(4H)-one]
~100 nM | 173 nM | CCn1c(CO)nn(-c2cc3c(cc2F)[C@H](O)[C@@H](c2ccccc2C)CN3C(C)C)c1=O (stereo in doubt) [Example 17, 4-Ethyl-2-((3S*,4R*)-6-fluoro-4-hydroxy-1-isopropyl-3-(o-tolyl)-1,2,3,4-tetrahydroquinolin-7-yl)-5-(hydroxymethyl)-2,4-dihydro-3H-1,2,4-triazol-3-one]
3 nM | – | CCn1c(CO)nn(-c2cc3c(cc2F)[C@@H](O)[C@H](c2ccccc2C)CN3C(C)C)c1=O (stereo in doubt) [Example 18, 4-Ethyl-2-((3R*,4S*)-6-fluoro-4-hydroxy-1-isopropyl-3-(o-tolyl)-1,2,3,4-tetrahydroquinolin-7-yl)-5-(hydroxymethyl)-2,4-dihydro-3H-1,2,4-triazol-3-one]
> 100 nM | 58.2 nM | CCn1c(CO)nn(-c2cc3c(cc2F)c(=O)c(-c2cc(C)ccc2F)cn3C(C)C)c1=O [Example 9, 7-(4-Ethyl-3-(hydroxymethyl)-5-oxo-4,5-dihydro-1H-1,2,4-triazol-1-yl)-6-fluoro-3-(2-fluoro-5-methylphenyl)-1-isopropylquinolin-4(1H)-one]
> 100 nM | 5530 nM | CCn1c(CO)nn(-c2cc3c(cc2F)N(C(C)=O)C(c2ccccc2C)CC3C(C)C)c1=O (stereo not drawn) [Example 24, 1-(1-Acetyl-7-fluoro-4-isopropyl-2-(o-tolyl)-1,2,3,4-tetrahydroquinolin-6-yl)-4-ethyl-3-(hydroxymethyl)-1H-1,2,4-triazol-5(4H)-one]
0.1 nM | 0.256 nM | CCn1c(CO)nn(-c2cc3c(cc2F)O[C@@H](c2c(F)cccc2Cl)CN3C(C)C)c1=O (single isomer, unassigned) [Example 7, (S*)-1-(2-(2-Chloro-6-fluorophenyl)-7-fluoro-4-isopropyl-3,4-dihydro-2H-benzo[b][1,4]oxazin-6-yl)-4-ethyl-3-(hydroxymethyl)-1H-1,2,4-triazol-5(4H)-one]
2 nM | 3.71 nM | CCn1c(CO)nn(-c2cc3c(cc2F)C(C)=C(c2ccccc2C)CN3C(C)C)c1=O [Example 21, 4-Ethyl-2-(6-fluoro-1-isopropyl-4-methyl-3-(o-tolyl)-1,2-dihydroquinolin-7-yl)-5-(hydroxymethyl)-2,4-dihydro-3H-1,2,4-triazol-3-one]
3 nM | 2.42 nM | CCn1c(CO)nn(-c2ccc3c(c2)N([C@@H](C)C(F)(F)F)CC(c2c(F)cccc2Cl)N3)c1=O (stereo partly drawn) [Example 4, 2-(2-(2-Chloro-6-fluorophenyl)-4-((S)-1,1,1-trifluoropropan-2-yl)-1,2,3,4-tetrahydroquinoxalin-6-yl)-4-ethyl-5-(hydroxymethyl)-2,4-dihydro-3H-1,2,4-triazol-3-one]
~0.3 nM | 0.504 nM | CCn1c(CO)nn(-c2cc3c(cc2F)OC(c2c(F)cccc2Cl)CN3C(C)C)c1=O (stereo not drawn) [Example 6, 1-(2-(2-Chloro-6-fluorophenyl)-7-fluoro-4-isopropyl-3,4-dihydro-2H-benzo[b][1,4]oxazin-6-yl)-4-ethyl-3-(hydroxymethyl)-1H-1,2,4-triazol-5(4H)-one]
100 nM | 588 nM | CCn1c(CO)nn(-c2ccc3c(c2)N([C@@H](C)C(F)(F)F)C(=O)C(c2ccccc2SC)N3)c1=O (stereo partly drawn) [Example 2, 7-(4-Ethyl-3-(hydroxymethyl)-5-oxo-4,5-dihydro-1H-1,2,4-triazol-1-yl)-3-(2-(methylthio)phenyl)-1-((S)-1,1,1-trifluoropropan-2-yl)-3,4-dihydroquinoxalin-2(1H)-one]
30 nM | 113 nM | CCn1c(CO)nn(-c2cc3c(cc2F)N[C@@H](c2ccccc2C)C[C@H]3C(C)C)c1=O (stereo in doubt) [Example 22, 4-Ethyl-2-((2R*,4S*)-7-fluoro-4-isopropyl-2-(0-tolyl)-1,2,3,4-tetrahydroquinolin-6-yl)-5-(hydroxymethyl)-2,4-dihydro-3H-1,2,4-triazol-3-one]
10 nM | 49.2 nM | CCn1c(CO)nn(-c2cc3c(cc2F)N[C@H](c2ccccc2C)C[C@@H]3C(C)C)c1=O (stereo in doubt) [Example 23, 4-Ethyl-2-((2R*,4S*)-7-fluoro-4-isopropyl-2-(o-tolyl)-1,2,3,4-tetrahydroquinolin-6-yl)-5-(hydroxymethyl)-2,4-dihydro-3H-1,2,4-triazol-3-one]

Compound | IC50 (MOLM-13 cells) | IC50 (human DHODH)
CCn1c(CO)nn(-c2cc3c(cc2F)c(=O)c(-c2ccccc2C)cn3C(C)C)c1=O [Example 10, 7-(4-Ethyl-3-(hydroxymethyl)-5-oxo-4,5-dihydro-TH-1,2,4-triazol-1-yl)-6-fluoro-1-isopropyl-3-(o-tolyl)quinolin-4(1H)-one] | 9 nM | –
CCn1c(CO)nn(-c2cc3c(cc2F)c(=O)c(-c2c(F)cccc2Cl)cn3C(C)C)c1=O [Example 12, 3-(2-Chloro-6-fluorophenyl)-7-(4-ethyl-3-(hydroxymethyl)-5-oxo-4,5-dihydro-1H-1,2,4-triazol-1-yl)-6-fluoro-1-isopropylquinolin-4(1H)-one] | 30 nM | –
CCn1c(CO)nn(-c2cc3c(cc2F)C(=O)C(c2ccccc2C)CN3C(C)C)c1=O (stereo not drawn) [Example 11, 7-(4-Ethyl-3-(hydroxymethyl)-5-oxo-4,5-dihydro-1H-1,2,4-triazol-1-yl)-6-fluoro-1-isopropyl-3-(o-tolyl)-2,3-dihydroquinolin-4(1H)-one] | 0.5 nM | –

Reference: patent US20240166622A1, “FLUORINATED QUINOLINE, QUINOXALINE AND BENZO[B][1,4]OXAZINE DERIVATIVES AS DIHYDROOROTATE DEHYDROGENASE (DHODH) INHIBITORS FOR THE TREATMENT OF CANCER, AUTOIMMUNE AND INFLAMMATORY DISEASES” (Janssen Biotech, Inc., priority 2019, published 2024)
